Where “and” joins values, the source holds several entries; their conditions need not be identical. Equal entries are not always repeated. Structures can show the parent of a compound that is named as a salt.
Legend:
[1] = Stability in the neat state at 40°C (positive chlorine by thiosulfate titration); type: physicochemical; details: HYDROCHLORIDE
Source text: ^a Weight of sample analyzed.
^b Volume of 10^^-2 N sodium thiosulfate required to titrate
the sample at time (T).
^c Percentage of positive chlorine in the sample analyzed.

[2] = system: Staph. epidermidis ATCC 12228; assay: Bactericidal endpoint (time for complete sterilization), ATCC 12228; type: cell-based
Source text: (§1) The procedure employed to determine the antibacterial activity of 3-chloro-2,2,4,4-tetramethyl-tetrahydro1,3-oxazolidine and 3-chloro-2,2-[spiro-1'-methyl-4'-piperidinyl]-4,4-dimethyl-1,3-oxazolidinewas based primarily on a modification of the serial dilution method of analysis. However, instead of determining the minimum inhibitory concentration parameters for the compound investigated, applicants alternatively chose to determine the bactericidal endpoint for a given concentration of the compound investigated. Consequently, applicants' studies were established to determine the time required for complete sterilization of the micro-organism tested, when exposed to a given concentration of the compound investigated.
(§2) A stock solution of each compound identified above was prepared using an appropriate buffered solution.
(§3) For screening in the absence of a denaturing agent (e.g., horse serum) an equal volume of distilled water and the resulting solution was subjected to the screen.
(§4) For screening in the presence of a denaturing agent, a volume of the stock solution was diluted using an equal volume of 10% horse serum. When necessary, the final solution was adjusted to the desired pH using 1N HCl and the solution was permitted to stand at room temperature for thirty minutes prior to the screening procedure.
(§5) To 5 ml of the stock solution being evaluated, there was added 0.2 ml of an overnight broth culture containing the particular micro-organism being investigated (see above). At time intervals of 0.5, 1, 2, 3, 4, 5, . . . minutes, a loop of this suspension was subcultured into 5 ml of a sterile nutrient broth. All the samples were then incubated at 37°C for seven days with daily observation for evidence of bacterial growth. The time interval reported is for that sample in which no bacterial growth was observed after the incubation period.

E. coli ATCC 10536 = assay: Bactericidal endpoint (time for complete sterilization), ATCC 10536; type: cell-based
Source text: as §1, §2, §3, §4, §5

[3] = system: Kleb. pneumoniae ATCC 10031; assay: Bactericidal endpoint (time for complete sterilization), ATCC 10031; type: cell-based
Source text: as §1, §2, §3, §4, §5

[4] = system: Pseud. aeruginosa ATCC 9027; assay: Bactericidal endpoint (time for complete sterilization), ATCC 9027; type: cell-based; details: for Antibacterial activity, time, 9027: 0.5 M NaH2PO4 pH 7.0
Source text: as §1, §2, §3, §4, §5

Staph. aureus ATCC 6538 = assay: Bactericidal endpoint (time for complete sterilization), ATCC 6538; type: cell-based
Source text: as §1, §2, §3, §4, §5

[5] = system: Bord. bronchiseptica ATCC 4617; assay: Bactericidal endpoint (time for complete sterilization), ATCC 4617; type: cell-based
Source text: as §1, §2, §3, §4, §5

[6] = Stability analysis in buffered solution (half-life); type: physicochemical
6501 = assay: Bactericidal endpoint (time for complete sterilization), 6501; type: cell-based
Source text: as §1, §2, §3, §4, §5

[7] = 0.1M Na2B4O7 pH 8.8, H2O, 8.13 × 10^-3 M (1333 ppm)
[8] = 0.1M Na2B4O7 pH 8.8, Serum, 8.13 × 10^-3 M (1333 ppm)
[9] = 0.1M NaH2PO4 pH 7.00, H2O, 8.92 × 10^-3 M (1463 ppm)
[10] = 0.1M NaH2PO4 pH 7.00, Serum, 8.92 × 10^-3 M (1463 ppm)
[11] = 0.1M NaOAc pH 4.6, H2O, 8.26 × 10^-3 M (1355 ppm)
[12] = 0.1M NaOAc pH 4.6, Serum, 8.26 × 10^-3 M (1355 ppm)
[13] = 0.1 M NaOAc pH 4.6, H2O, 6.52 × 10^-3 M (1428 ppm)
[14] = 0.1 M NaOAc pH 4.6, Serum, 5.69 × 10^-3 M (1246 ppm)
[15] = 0.5 M NaH2PO4 pH 7.0, H2O, 20.75 × 10^-3 M (4525 ppm)
[16] = 0.5 M NaH2PO4 pH 7.0, Serum, 19.88 × 10^-3 M (4334 ppm)
[17] = 0.5 M NaOAc pH 4.6, H2O, 21.00 × 10^-3 M (4578 ppm)
[18] = 0.5 M NaOAc pH 4.6, Serum, 20.50 × 10^-3 M (4469 ppm)

Compound: CN1CCC2(CC1)OCC(C)(C)N2Cl [3-CHLORO-2,2-[SPIRO-1'-METHYL-4'-PIPERIDINIUM]4,4-DIMETHYL-1,3-OXAZOLIDINE HYDROCHLORIDE]
- %Cl (percentage of positive chlorine in the sample analyzed) ([1]; 0 days): 13.7% and 13.1%
- %Cl (percentage of positive chlorine in the sample analyzed) ([1]; 1 day): 12.3% and 12.5%
- %Cl (percentage of positive chlorine in the sample analyzed) ([1]; 2 days): 12.3% and 11.9%
- %Cl (percentage of positive chlorine in the sample analyzed) ([1]; 3 days): 12.5% and 12.2%
- %Cl (percentage of positive chlorine in the sample analyzed) ([1]; 4 days): 12.1% and 12.3%
- %Cl (percentage of positive chlorine in the sample analyzed) ([1]; 5 days): 12.3% and 12.4%
- %Cl (percentage of positive chlorine in the sample analyzed) ([1]; 7 days): 12.2% and 12.1%
- %Cl (percentage of positive chlorine in the sample analyzed) ([1]; 10 days): 11.9% and 11.8%
- %Cl (percentage of positive chlorine in the sample analyzed) ([1]; 14 days): 12.1% and 11.8%
- %Cl (percentage of positive chlorine in the sample analyzed) ([1]; 21 days): 12.0% and 12.1%
- %Cl (percentage of positive chlorine in the sample analyzed) ([1]; 28 days): 11.5% and 11.6%
- %Cl (percentage of positive chlorine in the sample analyzed) ([1]; 35 days): 11.8% and 11.6%
- %Cl (percentage of positive chlorine in the sample analyzed) ([1]; 51 days): 9.5%

Compound: CC1(C)COC(C)(C)N1Cl [3-chloro-2,2,4,4-tetramethyl-tetrahydro-1,3-oxazolidine]
- Germicidal activity time, 12228 [2, 7]: > 5 min
- Germicidal activity time, 12228 [2, 8]: > 10 min
- Germicidal activity time, 12228 [2, 9]: 1 min
- Germicidal activity time, 12228 [2, 10]: 6 min
- Germicidal activity time, 12228 [2, 11]: 0.5 min
- Germicidal activity time, 12228 [2, 12]: > 10 min
- Germicidal activity time, 10536 (E. coli ATCC 10536; [7]): 2 min
- Germicidal activity time, 10536 (E. coli ATCC 10536; [8]): 4 min
- Germicidal activity time, 10536 (E. coli ATCC 10536; [9]): 0.5 min
- Germicidal activity time, 10536 (E. coli ATCC 10536; [10]): 3 min
- Germicidal activity time, 10536 (E. coli ATCC 10536; [11]): 0.5 min
- Germicidal activity time, 10536 (E. coli ATCC 10536; [12]): 3 min
- Germicidal activity time, 10031 [3, 7]: 4 min
- Germicidal activity time, 10031 [3, 8]: 9 min
- Germicidal activity time, 10031 [3, 9]: 0.5 min
- Germicidal activity time, 10031 [3, 10]: 5 min
- Germicidal activity time, 10031 [3, 11]: 0.5 min
- Germicidal activity time, 10031 [3, 12]: > 10 min
- Germicidal activity time, 9027 [4, 7]: 2 min
- Germicidal activity time, 9027 [4, 8]: 4 min
- Germicidal activity time, 9027 [4, 9]: 1 min
- Germicidal activity time, 9027 [4, 10]: 7 min
- Germicidal activity time, 9027 [4, 11]: 0.5 min
- Germicidal activity time, 9027 [4, 12]: 4 min
- Germicidal activity time, 6538 (Staph. aureus ATCC 6538; [7]): > 5 min
- Germicidal activity time, 6538 (Staph. aureus ATCC 6538; [8]): > 10 min
- Germicidal activity time, 6538 (Staph. aureus ATCC 6538; [9]): 3 min
- Germicidal activity time, 6538 (Staph. aureus ATCC 6538; [10]): > 10 min
- Germicidal activity time, 6538 (Staph. aureus ATCC 6538; [11]): 0.5 min
- Germicidal activity time, 6538 (Staph. aureus ATCC 6538; [12]): > 10 min
- Germicidal activity time, 4617 [5, 7]: 3 min
- Germicidal activity time, 4617 [5, 8]: 8 min
- Germicidal activity time, 4617 [5, 9]: 1 min
- Germicidal activity time, 4617 [5, 10]: > 10 min
- Germicidal activity time, 4617 [5, 11]: 0.5 min
- Germicidal activity time, 4617 [5, 12]: 6 min
- half-life at 1520 µM ([6]; 0.1 M Na2B4O7 pH 9.3, 40 °C, initial concentration 1.52 × 10^-3 M): ~5 h
- half-life at 2490 µM ([6]; 0.1 M Na2B4O7 pH 9.3, 40 °C, initial concentration 2.49 × 10^-3 M): ~4.6 h
- half-life at 5980 µM ([6]; 0.1 M Na2B4O7 pH 9.3, 40 °C, initial concentration 5.98 × 10^-3 M): ~3.3 h
- half-life at 1680 µM ([6]; 0.1 M NaH2PO4 pH 7.0, 40 °C, initial concentration 1.68 × 10^-3 M): ~70 h
- half-life at 3050 µM ([6]; 0.1 M NaH2PO4 pH 7.0, 40 °C, initial concentration 3.05 × 10^-3 M): ~54 h
- half-life at 6700 µM ([6]; 0.1 M NaH2PO4 pH 7.0, 40 °C, initial concentration 6.70 × 10^-3 M): ~54 h
- half-life at 1880 µM ([6]; 0.1 M NaOAc pH 4.6, 40 °C, initial concentration 1.88 × 10^-3 M): 2.2 h
- half-life at 2590 µM ([6]; 0.1 M NaOAc pH 4.6, 40 °C, initial concentration 2.59 × 10^-3 M): 2.2 h
- half-life at 5470 µM ([6]; 0.1 M NaOAc pH 4.6, 40 °C, initial concentration 5.47 × 10^-3 M): 2.6 h
- half-life at 6230 µM ([6]; H2O, initial concentration 6.23 × 10^-3 M): ~58 h

Compound: CN1CCC2(CC1)OCC(C)(C)N2Cl [3-chloro-2,2-[spiro-1'-methyl-4'-piperidinyl]-4,4-dimethyl-1,3-oxazolidine]
- Antibacterial activity, time, 12228 [2, 13]: 1 min
- Antibacterial activity, time, 12228 [2, 14]: > 10 min
- Antibacterial activity, time, 12228 [2, 15]: 1 min
- Antibacterial activity, time, 12228 [2, 16]: 5 min
- Antibacterial activity, time, 12228 [2, 17]: 0.5 min
- Antibacterial activity, time, 12228 [2, 18]: 2 min
- Antibacterial activity, time, 10536 (E. coli ATCC 10536; [13]): 0.5 min
- Antibacterial activity, time, 10536 (E. coli ATCC 10536; [14]): 2 min
- Antibacterial activity, time, 10536 (E. coli ATCC 10536; [15]): 0.5 min
- Antibacterial activity, time, 10536 (E. coli ATCC 10536; [16]): 7 min
- Antibacterial activity, time, 10536 (E. coli ATCC 10536; [17]): 0.5 min
- Antibacterial activity, time, 10536 (E. coli ATCC 10536; [18]): 0.5 min
- Antibacterial activity, time, 10031 [3, 13]: 0.5 min
- Antibacterial activity, time, 10031 [3, 14]: 7 min
- Antibacterial activity, time, 10031 [3, 15]: 1 min
- Antibacterial activity, time, 10031 [3, 16]: 8 min
- Antibacterial activity, time, 10031 [3, 17]: 0.5 min
- Antibacterial activity, time, 10031 [3, 18]: 0.5 min
- Antibacterial activity, time, 9025 [4, 13]: 0.5 min
- Antibacterial activity, time, 9025 [4, 14]: > 10 min
- Antibacterial activity, time, 9027 ([4]; H2O, 20.75 × 10^-3 M (4525 ppm)): 1 min
- Antibacterial activity, time, 9027 ([4]; Serum, 19.88 × 10^-3 M (4334 ppm)): 10 min
- Antibacterial activity, time, 9025 [4, 17]: 0.5 min
- Antibacterial activity, time, 9025 [4, 18]: 1 min
- Antibacterial activity, time, 6538 (Staph. aureus ATCC 6538; [13]): 5 min
- Antibacterial activity, time, 6538 (Staph. aureus ATCC 6538; [14]): > 10 min
- Antibacterial activity, time, 6538 (Staph. aureus ATCC 6538; [15]): 1 min
- Antibacterial activity, time, 6538 (Staph. aureus ATCC 6538; [16]): > 10 min
- Antibacterial activity, time, 6538 (Staph. aureus ATCC 6538; [17]): 0.5 min
- Antibacterial activity, time, 6538 (Staph. aureus ATCC 6538; [18]): 3 min
- Antibacterial activity, time, 4617 [5, 15]: 0.5 min
- Antibacterial activity, time, 4617 [5, 16]: 5 min
- Antibacterial activity, time, 4617 [5, 17]: 0.5 min
- Antibacterial activity, time, 4617 [5, 18]: 1 min
- Antibacterial activity, time, 6501 6501; [13]: 0.5 min
- Antibacterial activity, time, 6501 6501; [14]: 3 min
- Antibacterial activity, time, 6501 6501; [15]: 1 min
- Antibacterial activity, time, 6501 6501; [16]: 7 min
- Antibacterial activity, time, 6501 6501; [17]: 0.5 min
- Antibacterial activity, time, 6501 6501; [18]: 0.5 min

Source: patent publication US3954985A, “Method for inhibiting bacterial growth with certain selected 3-chloro-tetrahydro-1,3-oxazines or oxazolidines” (INTERx Research Corporation, priority 1975, dated 1976)
